# Source: patent US20230241071A1, “COMBINATION TREATMENT OF LIVER DISORDERS” (Terns Pharmaceuticals, Inc., priority 2021, published 2023)
# Read-outs that look alike come from different tables or passages of the source. Marks after values point to notes of the source that are not given here.
# What was measured:
# [1] = Single-ascending dose trial of Compound 2 in healthy participants: safety and PK; format: in vivo, human; conditions: for half-life / AUC(0-inf) / Cmax / Tmax: human, plasma, oral; for AUC(0-inf) / Cmax: mean; for fe, fraction of dose excreted in urine as unmodified compound 2: mean (% CV)
# Method: A single-ascending dose clinical trial of Compound 2 (potassium salt) was performed.
# Compound 2 plasma and urine concentrations were determined using validated liquid chromatography-tandem mass spectrometry assay
# Urine samples for Compound 2 concentration and PK sampling were collected pre-dose and at the following timepoints: 0-6 hours, 6-12 hours, 12-24 hours, and 24-48 hours. PK parameters were estimated via noncompartmental methods using Phoenix® WinNonlin® (Certara, LP, Princeton, N.J.). Concentrations of serum pharmacodynamic (PD) biomarkers apolipoprotein B (Apo B) and sex hormone binding globulin (SHBG) were measured using an immunoassay and serum lipids were determined using spectrophotometry.
# [2] = Mouse NASH model (high fat diet + CCl4), Compound 2; format: in vivo; conditions: C57BL/6J, in vivo, oral; mouse model of NASH; read-out: threshold AUC achieving significant histological improvement
# Method: (§1) C57BL/6J mice were fed a high fat diet for 10 weeks to induce obesity (>38 g BW). Obese mice were injected intraperitoneally (i.p.) twice a week for four weeks with 0.5 μl/g 25% CCl4 (formulated in olive oil) to induce fibrosis, and one group of normal BW mice were injected i.p. twice a week for four weeks with olive oil to serve as a healthy control. During the same dosing period, obese mice were fed orally once a day for 28 days with vehicle or varying doses of Compound 2. On CCl4 dosing days, CCl4 was administered at 4 hours post compound or vehicle dosing. On day 27, all animals were fasted for about 16 hours before terminal euthanasia. On day 28, all animals were sacrificed and various biological parameters were analyzed. Total body, liver, heart and brain weight were measured and changes in liver and heart weight were normalized using brain weight.
# (§2) Liver samples were collected for whole transcriptome analysis by RNA sequencing (RNAseq). RNAseq library (n=5 per group) preparation and sequencing was performed using Illumina standard protocols. Alignment of sequencing reads was performed using STAR aligner software and read counts were estimated using RSEM. Differentially expressed genes (compared to vehicle-treated NASH control mice) were determined using EdgeR software. Gene ontology analysis was performed using Advaita software with fold-change and adjusted p-value cutoffs of >1.5 and <0.05, respectively. Gene ontologies were derived from the Gene Ontology Consortium database (2019 Apr. 26) (Ashburner et al., Gene ontology: Tool for the unification of biology. Nature Genetics 25(1): 25-9 (2000); Gene Ontology Consortium, Creating the Gene Ontology Resource: Design and Implementation. Genome Research 11: 1425-1433 (2001)).
# mouse NASH model = assay: as above; format: in vivo
# Method: as §1, §2
# [3] = single dose 3 mg, fasted (n = 6)
# [4] = single dose 10 mg, fasted (n = 6)
# [5] = single dose 30 mg, fasted (n = 6)
# [6] = single dose 60 mg, fasted (n = 6)
# [7] = oral QD 28 days, all doses tested
structure (smiles),measurement,setting,value
"N#Cc1nn(-c2cc(Cl)c(Oc3n[nH]c(=O)c4ccccc34)c(Cl)c2)c(=O)[nH]c1=O [Compound 2, 2-(3,5-dichloro-4-((4-oxo-3,4-dihydrophthalazin-1-yl)oxy)phenyl)-3,5-dioxo-2,3,4,5-tetrahydro-1,2,4-triazine-6-carbonitrile]",heart rates,[1]; 24 hours after single dose,remained stable and within the normal range
same,renal excretion,[1]; all single doses,Minimal renal excretion
same,half-life,"[1]; 3 mg, single dose 3 mg, fasted (n = 6), median (min-max), read-out: t1/2 (converted)",17.3 h
same,half-life,"[1]; 10 mg, single dose 10 mg, fasted (n = 6), median (min-max), read-out: t1/2 (converted)",14.4 h
same,half-life,"[1]; 30 mg, single dose 30 mg, fasted (n = 6), median (min-max), read-out: t1/2 (converted)",15.7 h
same,half-life,"[1]; 60 mg, single dose 60 mg, fasted (n = 6), median (min-max), read-out: t1/2 (converted)",13.8 h
same,half-life,"[1]; single dose 3-60 mg, read-out: half-life (median) across single dose levels",13.8 to 17.3 h
same,AUC(0-inf),[1]; [3],4060 ng·h/mL
same,Cmax,[1]; [3],217 ng/mL
same,Tmax,"[1]; single dose 3 mg, fasted (n = 6), median (min-max)",4 h
same,AUC(0-inf),[1]; [4],8110 ng·h/mL
same,Cmax,[1]; [4],614 ng/mL
same,Tmax,"[1]; single dose 10 mg, fasted (n = 6), median (min-max)",4 h
same,AUC(0-inf),[1]; [5],33000 ng·h/mL
same,Cmax,[1]; [5],1800 ng/mL
same,Tmax,"[1]; single dose 30 mg, fasted (n = 6), median (min-max)",4 h
same,AUC(0-inf),[1]; [6],50000 ng·h/mL
same,Cmax,[1]; [6],3300 ng/mL
same,Tmax,"[1]; single dose 60 mg, fasted (n = 6), median (min-max)",4 h
same,overall safety and tolerability,[1]; single ascending doses up to 60 mg,safe and well-tolerated
same,AEs by relationship to drug: Not related,[1]; single dose 3 mg (n = 6),2 (33.3%)
same,AEs by relationship to drug: Possibly related,[1]; single dose 3 mg (n = 6),0
same,AEs by relationship to drug: Related,[1]; single dose 3 mg (n = 6),0
same,AEs by relationship to drug: Unlikely related,[1]; single dose 3 mg (n = 6),0
same,"Any AE, all CTCAE grades",[1]; single dose 3 mg (n = 6),2 (33.3%)
same,CTCAE Grade 1 AEs,[1]; single dose 3 mg (n = 6),0
same,CTCAE Grade 2 AEs,[1]; single dose 3 mg (n = 6),0
same,CTCAE Grade 3 or higher AEs,[1]; single dose 3 mg (n = 6),0
same,Serious AEs,[1]; single dose 3 mg (n = 6),0
same,"fe, fraction of dose excreted in urine as unmodified compound 2",[1]; [3],"2.95 (62) % dose, urine"
same,AEs by relationship to drug: Not related,[1]; single dose 10 mg (n = 6),0
same,AEs by relationship to drug: Possibly related,[1]; single dose 10 mg (n = 6),0
same,AEs by relationship to drug: Related,[1]; single dose 10 mg (n = 6),0
same,AEs by relationship to drug: Unlikely related,[1]; single dose 10 mg (n = 6),0
same,"Any AE, all CTCAE grades",[1]; single dose 10 mg (n = 6),0
same,CTCAE Grade 1 AEs,[1]; single dose 10 mg (n = 6),0
same,CTCAE Grade 2 AEs,[1]; single dose 10 mg (n = 6),0
same,CTCAE Grade 3 or higher AEs,[1]; single dose 10 mg (n = 6),0
same,Serious AEs,[1]; single dose 10 mg (n = 6),0
same,"fe, fraction of dose excreted in urine as unmodified compound 2",[1]; [4],"2.05 (74) % dose, urine"
same,AEs by relationship to drug: Not related,[1]; single dose 30 mg (n = 6),1 (16.7%)
same,AEs by relationship to drug: Possibly related,[1]; single dose 30 mg (n = 6),1 (16.7%)*
same,AEs by relationship to drug: Related,[1]; single dose 30 mg (n = 6),0
same,AEs by relationship to drug: Unlikely related,[1]; single dose 30 mg (n = 6),0
same,"Any AE, all CTCAE grades",[1]; single dose 30 mg (n = 6),2 (33.3%)
same,CTCAE Grade 1 AEs,[1]; single dose 30 mg (n = 6),1 (16.7%)
same,CTCAE Grade 2 AEs,[1]; single dose 30 mg (n = 6),1 (16.7%)
same,CTCAE Grade 3 or higher AEs,[1]; single dose 30 mg (n = 6),0
same,Serious AEs,[1]; single dose 30 mg (n = 6),0
same,"fe, fraction of dose excreted in urine as unmodified compound 2",[1]; [5],"1.78 (35) % dose, urine"
same,AEs by relationship to drug: Not related,[1]; single dose 60 mg (n = 6),0
same,AEs by relationship to drug: Possibly related,[1]; single dose 60 mg (n = 6),0
same,AEs by relationship to drug: Related,[1]; single dose 60 mg (n = 6),0
same,AEs by relationship to drug: Unlikely related,[1]; single dose 60 mg (n = 6),0
same,"Any AE, all CTCAE grades",[1]; single dose 60 mg (n = 6),0
same,CTCAE Grade 1 AEs,[1]; single dose 60 mg (n = 6),0
same,CTCAE Grade 2 AEs,[1]; single dose 60 mg (n = 6),0
same,CTCAE Grade 3 or higher AEs,[1]; single dose 60 mg (n = 6),0
same,Serious AEs,[1]; single dose 60 mg (n = 6),0
same,"fe, fraction of dose excreted in urine as unmodified compound 2",[1]; [6],"1.53 (53) % dose, urine"
same,"TSH, free T3, and free T4 levels",[1]; single dose 3-60 mg,remained within the normal range
same,cardiac related AEs,[1]; single dose 3-60 mg,No cardiac related AEs
same,"exposures (AUC, Cmax), dose proportionality",[1]; single dose 3-60 mg,approximately dose-proportional
same,half-life (median) across single dose levels,[1]; single dose 3-60 mg,> 13 h
same,severity of adverse events,[1]; single dose 3-60 mg,mild or moderate
same,subjects with increases in ALT more than 2-times greater than ULN,[1]; single dose 3-60 mg,No subjects
same,AUC,[2],3320 ng·h/mL
same,expression of genes associated with collagen extracellular matrix and hepatic stellate cell activation,mouse NASH model; liver RNAseq vs NASH control mice,reducing their expression levels
same,liver inflammation (histology),mouse NASH model; oral QD 28 days,trend in inflammation reduction
same,liver/brain weight,mouse NASH model; oral QD 28 days,significantly reduced
same,total body weight or heart/brain weight,mouse NASH model; oral QD 28 days,no effect
same,liver fibrosis (histology),"mouse NASH model; oral QD 28 days, 3 and 10 mpk",significantly reduced
same,liver steatosis (histology),mouse NASH model; [7],significantly reduced
same,"serum total cholesterol, triglycerides and ALT",mouse NASH model; [7],significantly reduced
